# Laboratory results published in patent US20260285853A1, “COMPOUNDS AND METHODS FOR MODULATING SPLICING” (REMIX THERAPEUTICS INC., priority 2023, published 2026).
# Columns and labels:
# Assay type in all cases: cell-based
# [1] = system: MYB mRNA; assay: Gene panel canonical junction qPCR assay, decrease in CJ mRNA, Table 3; details: decrease in canonical junction (CJ) mRNA, gene panel qPCR, Table 3
# Protocol: (§1) Compounds described herein were used to modulate RNA transcript abundance in cells. The expression of a target mRNA was measured by detecting the formation of an exon-exon junction in the canonical transcript (CJ). A compound mediated exon-inclusion event was detected by observing an increase in formation of a new junction with an alternative exon (AJ). Real-time qPCR assays were used to detect these splicing switches and interrogate the potency of various compounds towards different target genes. A high-throughput real time quantitative PCR (RT-qPCR) assay was developed to measure these two isoforms of the mRNA (CJ and AJ) for exemplary genes, such as HTT, SMN2, and MYB, together with a control housekeeping gene, GAPDH or GUSB or PPIA, used for normalization. Briefly, the A673 or K562 cell line was treated with various compounds described herein (e.g., compounds of Formula (I)). After treatment, the levels of the HTT, MYB, or SMN2 mRNA targets were determined from each sample of cell lysate by cDNA synthesis followed by qPCR.
# (§2) The A673 cell line was cultured in DMEM with 10% FBS. Cells were diluted with full growth media and plated in a 96-well plate (15,000 cells in 100 ul media per well). The plate was incubated at 37° C. with 5% CO2 for 24 hours to allow cells to adhere. An 11-point 3-fold serial dilution of the compounds was made in DMSO then diluted in media in an intermediate plate. Compounds were transferred from the intermediate plate to the cell plate with the top dose at a final concentration of 10 uM in the well. Final DMSO concentration was kept at or below 0.25%. The cell plate was returned to the incubator at 37° C. with 5% CO2 for an additional 24 hours.
# (§3) The K562 cell line was cultured in IMDM with 10% FBS. For K562, cells were diluted with full growth media and plated in either a 96-well plate (50,000 cells in 50 uL media per well) or a 384-well plate (8,000-40,000 cells in 45 uL media per well). An 11-point 3-fold serial dilution of the compounds were made in DMSO then diluted in media in an intermediate plate. Compound was transferred from the intermediate plate to the cell plate with the top dose at a final concentration of 10 uM in the well. Final DMSO concentration was kept at or below 0.25%. Final volume was 100 uL for 96-well plate and 50 uL for 384-well plate. The cell plate was then placed in an incubator at 37° C. with 5% CO2 for 24 hours.
# (§4) The data analysis was performed by first determining the ΔCt vs the housekeeper gene. This ΔCt was then normalized against the DMSO control (ΔΔCt) and converted to RQ (relative quantification) using the 2^(−ΔΔCt) equation. The RQ were then converted to a percentage response by arbitrarily setting an assay window of 3.5 and 4.0 ΔCt for HTT-CJ and MYB-CJ respectively and an assay window of 9 and 3 ΔCt for HTT-AJ and MYB-AJ in 96 well format (50,000 K562 cells/well and 15,000 A673 cells per well) and an assay window of 3 and 4 ΔCt for HTT-CJ and MYB-CJ respectively and an assay window of 5 and 3 ΔCt for HTT-AJ and MYB-AJ respectively in 384 well format (8,000 K562 cells/well example). […] The percentage response was then fitted to the 4 parametric logistic equation to evaluate the concentration dependence of compound treatment. The increase in AJ mRNA is reported as AC50 (compound concentration having 50% response in AJ increase) while the decrease in CJ mRNA levels is reported as IC50 (compound concentration having 50% response in CJ decrease).
# (§5) Additional studies were carried out for a larger panel of genes using the protocol provided above. The junction between flanking upstream and downstream exons was used to design canonical junction qPCR assays. At least one of the forward primer, reverse primer or the CY5-labeled 5′ nuclease probe (with 3′ quencher such as ZEN/Iowa Black FQ) was designed to overlap with the exon junction to capture the CJ mRNA transcript. […]
# [2] = system: HTT mRNA; assay: as above; details: decrease in canonical junction (CJ) mRNA, gene panel qPCR, Table 3
# Protocol: as §1, §2, §3, §4, §5
# [3] = system: HTT mRNA; assay: Splicing RT-qPCR assay (THP), Table 2A; details: Table 2A (THP); for AC50: AJ mRNA increase, read-out: HTT AJ (increase in alternative junction mRNA, AC50); for IC50: CJ mRNA decrease, read-out: HTT CJ (decrease in canonical junction mRNA, IC50)
# [4] = system: SH-SY5Y (human neuroblastoma) cells; assay: Cell viability, Cell Titer Glo 2.0 assay; details: read-out: Viability SHSY5Y.3 GI50
# Protocol: Compounds described herein were screened for toxicity in K562 (human chronic myelogenous leukemia) and SH-SY5Y (human neuroblastoma) cells using a Cell Titer Glo 2.0 assay.
# • Promega CellTiter-Glo® 2.0 Cell Viability Assay (cat #G9241) • Corning 384-well TC-treated microplates (cat #3570)
# Cells were plated at 500 cells/well (K562 cells) in 45 μL of IMDM supplemented with 10% FBS in a 384-well opaque plate. Wells containing only medium were used as a blank control. Test compounds (e.g., compounds of Formula (I) or (II) were first serially diluted in DMSO then diluted 1:100 with IMDM+10% FBS. The final concentration of DMSO was 0.1% in each well. The cells were incubated for 72 hours at 37° C. and 5% CO2 before assaying with Cell Titer Glo 2.0 reagent.
# [5] = system: MYB mRNA; assay: Splicing RT-qPCR assay (THP), Table 2A; details: Table 2A (THP); for AC50: AJ mRNA increase, read-out: MYB AJ (increase in alternative junction mRNA, AC50); for IC50: CJ mRNA decrease, read-out: MYB CJ (decrease in canonical junction mRNA, IC50)
Structure (SMILES),IC50 [1],IC50 [2],AC50 [3],IC50 [3],GI50 [4],AC50 [5],IC50 [5]
"CCNC1CCN(c2ccc(C(=O)Nc3cc(Oc4ccc(C)cc4)c4nc(C)cn4c3)c3nn(C)cc23)CC1 [Compound 328, 4-(4-(ethylamino)-piperidin-1-yl)-2-methyl-N-(2-methyl-8-(p-tolyloxy)-imidazo[1,2-a]pyridin-6-yl)-2H-indazole-7-carboxamide 2,2,2-trifluoroacetate]",< 0.1 µM,0.1 to 1 µM,0.1 to 1 µM,0.1 to 1 µM,0.1 to 1 µM,< 0.1 µM,< 0.1 µM
"CCNC1CCN(c2ccc(C(=O)Nc3cc(CO)c4nc(C)cn4c3)c3nn(C)cc23)CC1 [Compound 329, 4-[4-(ethylamino)-1-piperidyl]-N-[8-(hydroxymethyl)-2-methyl-imidazo[1,2-a]pyridin-6-yl]-2-methyl-indazole-7-carboxamide]",0.1 to 1 µM,> 10 µM,1 to 10 µM,> 10 µM,1 to 10 µM,0.1 to 1 µM,0.1 to 1 µM
"COc1c(NC(=O)c2c(F)cc(N3CCS(=N)(=O)CC3)c3cn(C)nc23)cn2cc(C)nc2c1F [Compound 330, 6-fluoro-N-(8-fluoro-7-meth-oxy-2-methyl-imidazo[1,2-a]-pyridin-6-yl)-4-(1-imino-1-oxo-1,4-thiazinan-4-yl)-2-methyl-indazole-7-carboxamide]",1 to 10 µM,> 10 µM,> 10 µM,> 10 µM,> 10 µM,0.1 to 1 µM,1 to 10 µM
"CCNC1CCN(c2cc(F)c(C(=O)Nc3cn4cc(C)nc4cc3OC)c3nn(C)cc23)CC1 [Compound 331, 4-[4-(ethylamino)-1-piperidyl]-6-fluoro-N-(7-methoxy-2-methyl-imidazo [1,2-a]pyridin-6-yl)-2-methyl-indazole-7-carboxamide]",< 0.1 µM,0.1 to 1 µM,0.1 to 1 µM,0.1 to 1 µM,1 to 10 µM,< 0.1 µM,< 0.1 µM
"CCNC1CCN(c2cc(O)c(C(=O)Nc3cn4cc(C)nc(C)c4n3)c3nn(C)cc23)CC1 [Compound 332, N-(6,8-dimethylimidazo[1,2-a]pyrazin-2-yl)-4-(4-(ethylamino)piperidin-1-yl)-6-hydroxy-2-methyl-2H-indazole-7-carboxamide 2,2,2-trifluoroacetate]",0.1 to 1 µM,> 10 µM,> 10 µM,> 10 µM,1 to 10 µM,0.1 to 1 µM,0.1 to 1 µM
"CCNC1CCN(c2cc(OC)c(C(=O)Nc3cn4cc(C)nc(C)c4n3)c3nn(C)cc23)CC1 [Compound 333, N-(6,8-dimethylimidazo[1,2-a]pyrazin-2-yl)-4-[4-(ethylamino)-1-piperidyl]-6-methoxy-2-methyl-indazole-7-carboxamide]",> 10 µM,> 10 µM,> 10 µM,> 10 µM,> 10 µM,> 10 µM,> 10 µM
"Cc1cn2cc(NC(=O)c3c(F)cc(N4CCC(NC5CC5)CC4)c4cn(C)nc34)nc2c(C)n1 [Compound 334, 4-(4-(cyclopropylamino)-piperidin-1-yl)-N-(6,8-dimethyl-imidazo[1,2-a]pyrazin-2-y1)-6-fluoro-2-methyl-2H-indazole-7-carboxamide bis(2,2,2-trifluoroacetate)]",0.1 to 1 µM,> 10 µM,1 to 10 µM,> 10 µM,0.1 to 1 µM,< 0.1 µM,0.1 to 1 µM
"CCNC1CCN(c2cc(Cl)c(C(=O)Nc3cn4cc(C)nc4c(F)c3OC)c3nn(C)cc23)CC1 [Compound 335, 6-chloro-4-[4-(ethylamino)-1-piperidyl]-N-(8-fluoro-7-methoxy-2-methyl-imidazo[1,2-a]pyridin-6-yl)-2-methyl-indazole-7-carboxamide]",< 0.1 µM,< 0.1 µM,< 0.1 µM,< 0.1 µM,< 0.1 µM,< 0.1 µM,< 0.1 µM
"CCNC1CCN(c2cc(F)c(C(=O)Nc3cn4cc(CC5CC5)nc4c(F)c3OC)c3nn(C)cc23)CC1 [Compound 336, N-[2-(cyclopropyl-methyl)-8-fluoro-7-methoxyimidazo-[1,2-a]pyridin-6-yl]-4-[4-(ethylamino)-1-piperidyl]-6-fluoro-2-methyl-indazole-7-carboxamide]",> 10 µM,> 10 µM,> 10 µM,> 10 µM,> 10 µM,> 10 µM,> 10 µM
"CCNC1CCN(c2ccc(C(=O)Nc3cn4cc(CO)nc(C)c4n3)c3nn(C)cc23)CC1 [Compound 337, 4-(4-(ethylamino)piperidin-1-yl)-N-(6-(hydroxymethyl)-8-methylimidazo[1,2-a]pyrazin-2-yl)-2-methyl-2H-indazole-7-carboxamide 2,2,2-trifluoroacetate]",1 to 10 µM,> 10 µM,> 10 µM,> 10 µM,> 10 µM,1 to 10 µM,1 to 10 µM
"CCNC1CCN(c2ccc(C(=O)Nc3cc(Cc4ccccc4)c4nc(C)cn4c3)c3nn(C)cc23)CC1 [Compound 338, N-(8-benzyl-2-methylimidazo-[1,2-a]pyridin-6-yl)-4-[4-(ethylamino)-1-piperidyl]-2-methyl-indazole-7-carboxamide]",< 0.1 µM,1 to 10 µM,1 to 10 µM,1 to 10 µM,0.1 to 1 µM,< 0.1 µM,< 0.1 µM
"CCNC1CCN(c2ccc(C(=O)Nc3cc(CC(=O)O)c4nc(C)cn4c3)c3nn(C)cc23)CC1 [Compound 339, 2-[6-[[4-[4-(ethylamino)-1-piperidyl]-2-methyl-indazole-7-carbonyl]amino]-2-methyl-imidazo[1,2-a]-pyridin-8-yl]acetic acid]",0.1 to 1 µM,0.1 to 1 µM,0.1 to 1 µM,0.1 to 1 µM,0.1 to 1 µM,0.1 to 1 µM,0.1 to 1 µM
"CCNC1CCN(c2ccc(C(=O)Nc3cc(CC(N)=O)c4nc(C)cn4c3)c3nn(C)cc23)CC1 [Compound 340, N-[8-(2-amino-2-oxo-ethyl)-2-methyl-imidazo[1,2-a]pyridin-6-yl]-4-[4-(ethylamino)-1-piperidyl]-2-methyl-indazole-7-carboxamide]",> 10 µM,> 10 µM,> 10 µM,> 10 µM,> 10 µM,> 10 µM,> 10 µM
